Marks after values point to notes of the source that are not given here.
Tests used:
adjuvant arthritis mice = assay: Adjuvant arthritis mice: hyperalgesia (phlogogenic paw thermal withdrawal latency); assay type: in vivo, Kunming mice
Experimental: BCG was inactivated in water bath at 80° C., and fully emulsified along with complete Freund's adjuvant to form complete Freund's adjuvant emulsion containing 5 mg/ml BCG, preserved at 4° C., and shake well before use. The Kunming mice were divided into a modeling group and a false modeling group. According to the method recited in the literature [Rasool M, Sabina E P, Lavanya B. Anti-inflammatory effect of Spirulina fusiformis on adjuvant-induced arthritis in mice. Biol Pharm Bull. 2006, 29(12):2483-7], for the modeling group, the model was prepared by intradermal injection of 20 ul the emulsion under the plantar surface of right paws after the mice was narcotized; for the false modeling group, the emulsion was replaced with physiological saline. For the modeling group, the animals were screened on Day 8 after injection: the mice with the injected paw thickness increased >0.5 mm and thermal hyperalgesia occurred (paw thermal withdrawal latency <8 second) were selected as experimental subjects. The selected mice were divided into 5 groups randomly: low, middle, high dose treatment group (0.8, 4, 20 mg/kg); indomethacin positive control group (10 mg/kg); negative control group (physiological saline), each comprising 12 animals. Day 8 after inflammation, intragastric administration was carried out on each group to give corresponding intervention, one time per day for 10 days continuously.
30 min after intragastric administration, the phlogogenic paw thermal withdrawal latency of the mice in each group was determined by photo-thermal dolorimeter to reflect animals' hyperalgesia status.

in vivo = settings: mouse, sc
[1] = test system: type II collagen-induced arthritis rat; assay: Type II collagen-induced arthritis rat: mechanical hyperalgesia (Von-frey mechanical pain threshold); assay type: in vivo, Wistar rat; settings: koumine 0.6, 3, 15 mg/kg intragastric; dose-effect relationship
Experimental: (§1) Under aseptic conditions, 10 mg chicken type II collagen protein was fully mixed with 5 ml 10 mM glacial acetic acid solution, and stirred overnight in refrigerator at 4° C. to fully dissolve it. It was mixed with complete Freund's adjuvant in equal volume in ice bath to fully emulsify into an emulsion with a collagen concentration of 1 mg/ml.
(§2) Wistar rats are divided into a modeling group and a false modeling group. After the modeling group rats were narcotized with intraperitoneal injection of pentobarbital, the above emulsion was injected intracutaneously at 3 to 4 positions at back, tail root or the like, 0.3 ml for each, an primary immunity was carried out. After 7 days, a secondary immunity was carried out, the emulsifying agent complete Freund's adjuvant of initial immunity was replaced with incomplete Freund's adjuvant, 0.1 ml the emulsion was injected under sevoflurane inhalation anesthesia wherein the injection position is different from the last time. […]
1 hour after intragastric administration, the thermal withdrawal latency of each group was determined by the photo-thermal dolorimeter; the mechanical pain threshold of rats of each group was determined by Von-frey electromechanical pain threshold detector, thus the condition of thermal hyperalgesia and mechanical hyperalgesia of rats of each group was observed.

[2] = test system: type II collagen-induced arthritis rat; assay: Type II collagen-induced arthritis rat: joint pathological change, HE staining and pathological score; assay type: in vivo, Wistar rat; settings: koumine 0.6, 3, 15 mg/kg intragastric; 10 days after intervention
Experimental: as §1
as §2, with “time. In false modeling group, the emulsion was replaced with solvent glacial acetic acid solution.” for “time.”
The rats of each group were killed 10 days after intervention, the ankle joints of left hind limbs were picked off to conduct HE staining, and the pathological change was observed and scored. […]

[3] = test system: type II collagen-induced arthritis rat; assay: Type II collagen-induced arthritis rat: joint pathological change, X-ray; assay type: in vivo, Wistar rat; settings: high dose and middle dose of koumine (15 and 3 mg/kg); 9 days after intervention
Experimental: as §1
Wistar rats are divided into a modeling group and a false modeling group. After the modeling group rats were narcotized with intraperitoneal injection of pentobarbital, the above emulsion was injected intracutaneously at 3 to 4 positions at back, tail root or the like, 0.3 ml for each, an primary immunity was carried out. After 7 days, a secondary immunity was carried out, the emulsifying agent complete Freund's adjuvant of initial immunity was replaced with incomplete Freund's adjuvant, 0.1 ml the emulsion was injected under sevoflurane inhalation anesthesia wherein the injection position is different from the last time. In false modeling group, the emulsion was replaced with solvent glacial acetic acid solution.
Successfully modeled rat in the modeling group were randomly divide into 5 groups: low, middle, high-dose koumine treatment group, positive control group, negative control group, 10 rats for each group. […]

[4] = koumine 0.8 mg/kg intragastric once daily from Day 8
[5] = koumine 4 mg/kg intragastric once daily from Day 8
[6] = koumine 20 mg/kg intragastric once daily from Day 8

Question: Which “Thermal stimulus withdrawal latency, Before intervention” value (adjuvant arthritis mice; koumine 0.8 mg/kg intragastric once daily for 10 days from Day 8 after inflammation) does the source give for C=CC12CN(C)C3CC14C(=Nc1ccccc14)C1CC2C3CO1 (centres unmarked) [Koumine] here?
Answer: 14.1 ± 1.1 s

Question: What about the “Thermal stimulus withdrawal latency, Intervention Day 4” value (adjuvant arthritis mice; [4]) of the same molecule?
Answer: 5.9 ± 1.3^★★ second

Question: What about the “Thermal stimulus withdrawal latency, Intervention Day 8” value (adjuvant arthritis mice; [4]) of the same molecule?
Answer: 4.9 ± 1.1^★★ second

Question: What about the “Thermal stimulus withdrawal latency, Intervention Day 12” value (adjuvant arthritis mice; [4]) of the same molecule?
Answer: 4.9 ± 1.0*^★ second

Question: And the “Thermal stimulus withdrawal latency, Intervention Day 16” value (adjuvant arthritis mice; [4])?
Answer: 5.9 ± 1.0**^★ second

Question: What about the “Thermal stimulus withdrawal latency, Intervention Day 18” value (adjuvant arthritis mice; [4]) of the same molecule?
Answer: 6.1 ± 1.2**^★★ second

Question: And the “Thermal stimulus withdrawal latency, Before intervention” value (adjuvant arthritis mice; koumine 4 mg/kg intragastric once daily for 10 days from Day 8 after inflammation)?
Answer: 13.6 ± 1.1 s

Question: And the “Thermal stimulus withdrawal latency, Intervention Day 4” value (adjuvant arthritis mice; [5])?
Answer: 5.8 ± 1.5^★★ second

Question: And the “Thermal stimulus withdrawal latency, Intervention Day 8” value (adjuvant arthritis mice; [5])?
Answer: 4.3 ± 0.8 s

Question: What about the “Thermal stimulus withdrawal latency, Intervention Day 12” value (adjuvant arthritis mice; [5]) of the same molecule?
Answer: 6.7 ± 1.9**^★ second

Question: What about the “Thermal stimulus withdrawal latency, Intervention Day 16” value (adjuvant arthritis mice; [5]) of the same molecule?
Answer: 7.8 ± 1.9**^★ second

Question: What about the “Thermal stimulus withdrawal latency, Intervention Day 18” value (adjuvant arthritis mice; [5]) of the same molecule?
Answer: 8.4 ± 1.8**^★★ second

Question: What about the “Thermal stimulus withdrawal latency, Before intervention” value (adjuvant arthritis mice; koumine 20 mg/kg intragastric once daily for 10 days from Day 8 after inflammation) of the same molecule?
Answer: 13.9 ± 1.1 s

Question: And the “Thermal stimulus withdrawal latency, Intervention Day 4” value (adjuvant arthritis mice; [6])?
Answer: 6.1 ± 1.4^★★ second

Question: What about the “Thermal stimulus withdrawal latency, Intervention Day 8” value (adjuvant arthritis mice; [6]) of the same molecule?
Answer: 4.7 ± 1.5^★★ second

Question: And the “Thermal stimulus withdrawal latency, Intervention Day 12” value (adjuvant arthritis mice; [6])?
Answer: 9.2 ± 1.2**^★ second

Question: What about the “Thermal stimulus withdrawal latency, Intervention Day 16” value (adjuvant arthritis mice; [6]) of the same molecule?
Answer: 10.7 ± 1.2**^★★ second

Question: What about the “Thermal stimulus withdrawal latency, Intervention Day 18” value (adjuvant arthritis mice; [6]) of the same molecule?
Answer: 10.8 ± 1.1**^★★ second

Question: What about the “Effect on thermal stimulus withdrawal latency (summary of Table 1)” value (adjuvant arthritis mice; koumine 0.8, 4, 20 mg/kg intragastric, dose-effect and time-effect relationships) of the same molecule?
Answer: can significantly extend the thermal stimulus withdrawal latency

Question: And the LD50 (in vivo)?
Answer: 99 mg/kg

Question: What about the “Effect on mechanical pain threshold (summary of Table 4)” value [1] of the same molecule?
Answer: improve mechanical pain threshold

Question: And the “Scores of pathologic change degree of ankle joints, HE staining (FIGS. 9 and 10)” value [2]?
Answer: significantly decrease the scores of pathologic change degree of ankle joints

Question: What about the “Joint pathological change, X-ray images (FIG. 8)” value [3] of the same molecule?
Answer: relieve the bone destruction of ankle joint
